Measurements from ChEMBL document CHEMBL1147331, “Cytotoxic and antimalarial bisbenzylisoquinoline alkaloids from Stephania erecta” (J Nat Prod, 1993).
Values after ≈ are worked out from the molar mass of the structure shown.

Key:
Plasmodium falciparum [1] = assay: Antimalarial activity after 24 hrs against chloroquine-sensitive Plasmodium falciparum D6 infected type A+ human erythrocytes by [3H]hypoxanthine uptake; assay type: functional; conditions: read-out: ED50 (the source's name)
Plasmodium falciparum [2] = assay: Antimalarial activity after 24 hrs against chloroquine-resistant Plasmodium falciparum W2 infected type A+ human erythrocytes by [3H]hypoxanthine uptake; assay type: functional; conditions: read-out: ED50 (the source's name)
[3] = Cytotoxicity against human BCA1 cells after 3 days by sulforhodamine B assay; assay type: cell-based; conditions: read-out: ED50
[4] = Cytotoxicity against human HT1080 cells after 3 days by sulforhodamine B assay; assay type: cell-based, HT-1080; conditions: read-out: ED50
[5] = Cytotoxicity against human LUC1 cells after 3 days by sulforhodamine B assay; assay type: cell-based; conditions: read-out: ED50
[6] = Cytotoxicity against human SK-MEL-2 cells after 3 days by sulforhodamine B assay; assay type: cell-based; conditions: read-out: ED50
[7] = Cytotoxicity against human Col1 cells after 3 days by sulforhodamine B assay; assay type: cell-based; conditions: read-out: ED50
[8] = Cytotoxicity against human KB cells after 3 days by sulforhodamine B assay; assay type: cell-based; conditions: read-out: ED50
[9] = Cytotoxicity against human KBV1 cells after 3 days by sulforhodamine B assay; assay type: cell-based, KB-V1; conditions: read-out: ED50
[10] = Cytotoxicity against mouse P388 cells after 2 days by sulforhodamine B assay; assay type: cell-based; conditions: read-out: ED50
[11] = Cytotoxicity against human A431 cells after 3 days by sulforhodamine B assay; assay type: cell-based, A-431; conditions: read-out: ED50
[12] = Cytotoxicity against human LNCAP cells after 3 days by sulforhodamine B assay; assay type: cell-based; conditions: read-out: ED50
[13] = Cytotoxicity against human ZR-75-1 cells after 3 days by sulforhodamine B assay; assay type: cell-based; conditions: read-out: ED50
[14] = Selectivity index, ratio of ED50 for human BCA1 cells to ED50 for chloroquine-sensitive Plasmodium falciparum D6; assay type: toxicity, cell-based; conditions: read-out: Ratio ED50
[15] = Selectivity index, ratio of ED50 for human BCA1 cells to ED50 for chloroquine-resistant Plasmodium falciparum W2; assay type: toxicity, cell-based; conditions: read-out: Ratio ED50
[16] = Selectivity index, ratio of ED50 for human HT1080 cells to ED50 for chloroquine-sensitive Plasmodium falciparum D6; assay type: toxicity, cell-based, HT-1080; conditions: read-out: Ratio ED50
[17] = Selectivity index, ratio of ED50 for human HT1080 cells to ED50 for chloroquine-resistant Plasmodium falciparum W2; assay type: toxicity, cell-based, HT-1080; conditions: read-out: Ratio ED50
[18] = Selectivity index, ratio of ED50 for human LUC1 cells to ED50 for chloroquine-sensitive Plasmodium falciparum D6; assay type: toxicity, cell-based; conditions: read-out: Ratio ED50
[19] = Selectivity index, ratio of ED50 for human LUC1 cells to ED50 for chloroquine-resistant Plasmodium falciparum W2; assay type: toxicity, cell-based; conditions: read-out: Ratio ED50
[20] = Selectivity index, ratio of ED50 for human MEL2 cells to ED50 for chloroquine-sensitive Plasmodium falciparum D6; assay type: toxicity, cell-based; conditions: read-out: Ratio ED50
[21] = Selectivity index, ratio of ED50 for human MEL2 cells to ED50 for chloroquine-resistant Plasmodium falciparum W2; assay type: toxicity, cell-based; conditions: read-out: Ratio ED50
[22] = Selectivity index, ratio of ED50 for human COL1 cells to ED50 for chloroquine-sensitive Plasmodium falciparum D6; assay type: toxicity, cell-based; conditions: read-out: Ratio ED50
[23] = Selectivity index, ratio of ED50 for human COL1 cells to ED50 for chloroquine-resistant Plasmodium falciparum W2; assay type: toxicity, cell-based; conditions: read-out: Ratio ED50
[24] = Selectivity index, ratio of ED50 for human KB cells to ED50 for chloroquine-sensitive Plasmodium falciparum D6; assay type: toxicity, cell-based; conditions: read-out: Ratio ED50
[25] = Selectivity index, ratio of ED50 for human KB cells to ED50 for chloroquine-resistant Plasmodium falciparum W2; assay type: toxicity, cell-based; conditions: read-out: Ratio ED50
[26] = Selectivity index, ratio of ED50 for human KB-V1 cells to ED50 for chloroquine-sensitive Plasmodium falciparum D6; assay type: toxicity, cell-based; conditions: read-out: Ratio ED50
[27] = Selectivity index, ratio of ED50 for human KB-V1 cells to ED50 for chloroquine-resistant Plasmodium falciparum W2; assay type: toxicity, cell-based; conditions: read-out: Ratio ED50
[28] = Selectivity index, ratio of ED50 for human LNCaP cells to ED50 for chloroquine-sensitive Plasmodium falciparum D6; assay type: toxicity, cell-based; conditions: read-out: Ratio ED50
[29] = Selectivity index, ratio of ED50 for human LNCaP cells to ED50 for chloroquine-resistant Plasmodium falciparum W2; assay type: toxicity, cell-based; conditions: read-out: Ratio ED50
[30] = Selectivity index, ratio of ED50 for human ZR-75-1 cells to ED50 for chloroquine-sensitive Plasmodium falciparum D6; assay type: toxicity, cell-based; conditions: read-out: Ratio ED50
[31] = Selectivity index, ratio of ED50 for human ZR-75-1 cells to ED50 for chloroquine-resistant Plasmodium falciparum W2; assay type: toxicity, cell-based; conditions: read-out: Ratio ED50
in vitro [32] = conditions: mouse, P388 cells
Description: Selectivity index, ratio of ED50 for mice (Mus musculus) P388 cells to ED50 for chloroquine-sensitive Plasmodium falciparum D6

in vitro [33] = conditions: mouse, P388 cells; remark: listed apart in the source
Description: Selectivity index, ratio of ED50 for mice (Mus musculus) P388 cells to ED50 for chloroquine-resistant Plasmodium falciparum W2

in vitro [34] = conditions: human, A431 cells
Description: Selectivity index, ratio of ED50 for human A431 cells to ED50 for chloroquine-sensitive Plasmodium falciparum D6

in vitro [35] = conditions: human, A431 cells; remark: listed apart in the source
Description: Selectivity index, ratio of ED50 for human A431 cells to ED50 for chloroquine-resistant Plasmodium falciparum W2

SMILES	EC50 (Plasmodium falciparum [1]) [µg/mL]	EC50 (Plasmodium falciparum [2]) [µg/mL]	CC50 at 72 h [3] [µg/mL]	CC50 at 72 h [4] [µg/mL]	CC50 at 72 h [5] [µg/mL]	CC50 at 72 h [6] [µg/mL]	CC50 at 72 h [7] [µg/mL]	CC50 at 72 h [8] [µg/mL]	CC50 at 72 h [9] [µg/mL]	CC50 at 48 h [10] [µg/mL]	CC50 at 72 h [11] [µg/mL]	CC50 at 72 h [12] [µg/mL]	CC50 at 72 h [13] [µg/mL]	selectivity ratio [14]	selectivity ratio [15]	selectivity ratio [16]	selectivity ratio [17]	selectivity ratio [18]	selectivity ratio [19]	selectivity ratio [20]	also measured
COc1ccc2cc1Oc1ccc(cc1)C[C@H]1c3cc(c(OC)cc3CCN1C)Oc1c(OC)c(OC)cc3c1[C@@H](C2)N(C)CC3	0.165 (≈ 0.265 µM)	0.0546 (≈ 0.0877 µM)	5.4 (≈ 8.67 µM)	11 (≈ 17.7 µM)	10 (≈ 16.1 µM)	19.5 (≈ 31.3 µM)	10.5 (≈ 16.9 µM)	6.6 (≈ 10.6 µM)	1.5 (≈ 2.41 µM)	5.6 (≈ 8.99 µM)	8.4 (≈ 13.5 µM)	9.4 (≈ 15.1 µM)	5 (≈ 8.03 µM)	33	99	67	202	61	183	118	selectivity ratio [21]: 357; selectivity ratio [22]: 64; selectivity ratio [23]: 192; selectivity ratio [24]: 40; selectivity ratio [25]: 121; selectivity ratio [26]: 9; selectivity ratio [27]: 28; selectivity ratio [28]: 57; selectivity ratio [29]: 172; selectivity ratio [30]: 30; selectivity ratio [31]: 92; selectivity ratio (in vitro [32]): 34; selectivity ratio (in vitro [33]): 103; selectivity ratio (in vitro [34]): 51; selectivity ratio (in vitro [35]): 154
COc1ccc2cc1Oc1ccc(cc1)C[C@H]1c3cc(c(OC)cc3CCN1C)Oc1c(OC)c(OC)cc3c1[C@@H](C2)NCC3	0.0661 (≈ 0.109 µM)	0.0453 (≈ 0.0744 µM)	4.4 (≈ 7.23 µM)	7.5 (≈ 12.3 µM)	9.8 (≈ 16.1 µM)	8.2 (≈ 13.5 µM)	7.6 (≈ 12.5 µM)	6.3 (≈ 10.3 µM)	2.8 (≈ 4.6 µM)	4.7 (≈ 7.72 µM)	4.7 (≈ 7.72 µM)	4.1 (≈ 6.74 µM)	1.8 (≈ 2.96 µM)	67	97	114	166	148	216	124	selectivity ratio [21]: 181; selectivity ratio [22]: 115; selectivity ratio [23]: 168; selectivity ratio [24]: 95; selectivity ratio [25]: 139; selectivity ratio [26]: 42; selectivity ratio [27]: 62; selectivity ratio [28]: 62; selectivity ratio [29]: 91; selectivity ratio [30]: 27; selectivity ratio [31]: 40; selectivity ratio (in vitro [32]): 71; selectivity ratio (in vitro [33]): 104; selectivity ratio (in vitro [34]): 71; selectivity ratio (in vitro [35]): 104
COc1ccc2cc1Oc1ccc(cc1)C[C@H]1c3c(cc(OC)c4c3Oc3cc5c(cc3O4)CCN=C5C2)CCN1C	0.307 (≈ 0.547 µM)	0.256 (≈ 0.457 µM)	4.6 (≈ 8.2 µM)	2.1 (≈ 3.75 µM)	1.7 (≈ 3.03 µM)	9.9 (≈ 17.7 µM)	5 (≈ 8.92 µM)	2.8 (≈ 4.99 µM)	6.8 (≈ 12.1 µM)	3.1 (≈ 5.53 µM)	6 (≈ 10.7 µM)	2 (≈ 3.57 µM)	0.7 (≈ 1.25 µM)	15	18	7	8	6	7	32	selectivity ratio [21]: 39; selectivity ratio [22]: 16; selectivity ratio [23]: 20; selectivity ratio [24]: 9; selectivity ratio [25]: 11; selectivity ratio [26]: 22; selectivity ratio [27]: 27; selectivity ratio [28]: 7; selectivity ratio [29]: 8; selectivity ratio [30]: 2; selectivity ratio [31]: 3; selectivity ratio (in vitro [32]): 10; selectivity ratio (in vitro [33]): 12; selectivity ratio (in vitro [34]): 20; selectivity ratio (in vitro [35]): 23
COc1ccc2cc1Oc1ccc(cc1)C[C@H]1c3cc(c(OC)cc3CCN1C)Oc1c(O)c(OC)cc3c1[C@@H](C2)N(C)CC3	0.121 (≈ 0.198 µM)	0.23 (≈ 0.377 µM)	5 (≈ 8.21 µM)	10 (≈ 16.4 µM)	9.7 (≈ 15.9 µM)	14.9 (≈ 24.5 µM)	11.1 (≈ 18.2 µM)	6.5 (≈ 10.7 µM)	3.7 (≈ 6.08 µM)	7.4 (≈ 12.2 µM)	4.9 (≈ 8.05 µM)	5.9 (≈ 9.69 µM)	2.5 (≈ 4.11 µM)	42	22	83	44	80	42	124	selectivity ratio [21]: 65; selectivity ratio [22]: 92; selectivity ratio [23]: 48; selectivity ratio [24]: 54; selectivity ratio [25]: 28; selectivity ratio [26]: 31; selectivity ratio [27]: 16; selectivity ratio [28]: 49; selectivity ratio [29]: 26; selectivity ratio [30]: 21; selectivity ratio [31]: 11; selectivity ratio (in vitro [32]): 61; selectivity ratio (in vitro [33]): 32; selectivity ratio (in vitro [34]): 41; selectivity ratio (in vitro [35]): 21
COc1ccc2cc1Oc1ccc(cc1)C[C@H]1c3c(cc4c(c3Oc3cc5c(cc3OC)CCN[C@@H]5C2)OCO4)CCN1C	0.0466 (≈ 0.0786 µM)	0.129 (≈ 0.218 µM)	1.7 (≈ 2.87 µM)	1.9 (≈ 3.21 µM)	2 (≈ 3.37 µM)	10.5 (≈ 17.7 µM)	3.1 (≈ 5.23 µM)	3.9 (≈ 6.58 µM)	1.4 (≈ 2.36 µM)	0.1 (≈ 0.169 µM)	1.8 (≈ 3.04 µM)	3 (≈ 5.06 µM)	0.9 (≈ 1.52 µM)	36	13	41	15	43	16	225	selectivity ratio [21]: 81; selectivity ratio [22]: 67; selectivity ratio [23]: 24; selectivity ratio [24]: 84; selectivity ratio [25]: 30; selectivity ratio [26]: 30; selectivity ratio [27]: 11; selectivity ratio [28]: 64; selectivity ratio [29]: 23; selectivity ratio [30]: 19; selectivity ratio [31]: 7; selectivity ratio (in vitro [32]): 2; selectivity ratio (in vitro [33]): 1; selectivity ratio (in vitro [34]): 39; selectivity ratio (in vitro [35]): 14
COc1ccc2cc1Oc1ccc(cc1)C[C@H]1c3c(cc(OC)c(OC)c3Oc3cc4c(cc3OC)CCN[C@@H]4C2)CCN1C	0.0459 (≈ 0.0754 µM)	0.0937 (≈ 0.154 µM)	3.2 (≈ 5.26 µM)	7.4 (≈ 12.2 µM)	8.8 (≈ 14.5 µM)	14.5 (≈ 23.8 µM)	5.5 (≈ 9.04 µM)	6 (≈ 9.86 µM)	2 (≈ 3.29 µM)	3.5 (≈ 5.75 µM)	6.1 (≈ 10 µM)	3.7 (≈ 6.08 µM)	1.9 (≈ 3.12 µM)	70	34	161	79	192	94	316	selectivity ratio [21]: 155; selectivity ratio [22]: 120; selectivity ratio [23]: 59; selectivity ratio [24]: 131; selectivity ratio [25]: 64; selectivity ratio [26]: 44; selectivity ratio [27]: 21; selectivity ratio [28]: 81; selectivity ratio [29]: 40; selectivity ratio [30]: 41; selectivity ratio [31]: 20; selectivity ratio (in vitro [32]): 76; selectivity ratio (in vitro [33]): 37; selectivity ratio (in vitro [34]): 133; selectivity ratio (in vitro [35]): 65
COc1ccc2cc1Oc1ccc(cc1)C[C@H]1c3c(cc(OC)c(O)c3Oc3cc4c(cc3OC)CCN[C@@H]4C2)CCN1C	0.063 (≈ 0.106 µM)	0.223 (≈ 0.375 µM)	4.6 (≈ 7.73 µM)	6.9 (≈ 11.6 µM)	9 (≈ 15.1 µM)	13.4 (≈ 22.5 µM)	10.3 (≈ 17.3 µM)	5.8 (≈ 9.75 µM)	2.2 (≈ 3.7 µM)	2 (≈ 3.36 µM)	8.3 (≈ 14 µM)	5.8 (≈ 9.75 µM)	1.8 (≈ 3.03 µM)	73	21	110	31	143	40	213	selectivity ratio [21]: 60; selectivity ratio [22]: 164; selectivity ratio [23]: 46; selectivity ratio [24]: 92; selectivity ratio [25]: 26; selectivity ratio [26]: 35; selectivity ratio [27]: 10; selectivity ratio [28]: 92; selectivity ratio [29]: 26; selectivity ratio [30]: 29; selectivity ratio [31]: 8; selectivity ratio (in vitro [32]): 32; selectivity ratio (in vitro [33]): 9; selectivity ratio (in vitro [34]): 132; selectivity ratio (in vitro [35]): 37
